System: CD79A, CD79B and IgM
Assay: Surface expression of BCR complex components on leukemia cells by flow cytometry
Assay type: cell-based, human
Conditions: 200 nM, 8 hours; n = 5 - 6
Source text: To determine immune cell populations, the following antibodies were employed: anti-CD19-APC, anti-CD3-APC, anti-CD4-PerCP and anti-CD8-APC (all from Immunostep); anti-CD3-FITC and anti-CD56-APC (Cytognos); and anti-CD3-PE/Cy7 and anti-CD5-APC/Cy7 (Biolegend). The subsets of immune cells were identified as follows: T cells were defined as CD3^+CD56^-, NK cells were identified as CD3^-CD56^+ and healthy B cells as CD19^+. Leukemia cells were defined as CD19^+, as the percentage of healthy B cells (CD19^+CD5^-) detected in PBMCs from patients with CLL was less than 2% (data not shown). Additionally, antibodies from Biolegend were used to detect surface expression of CD79A (clone: HM47), CD79B (clone: CB3-1) and IgM (clone: MHM-88). Cells were analyzed in a BD FACS Canto II flow cytometer with FACS Diva software (Beckton Dickinson).
The inhibition of the tonic BCR pathway by EC-7072 was evaluated by: • (i) incubating PBMCs from patients with CLL, following treatment with 200 nM EC-7072, for 8 hours. Surface expression of CD79A (Figure 7A), CD79B (Figure 7B) and IgM (Figure 7C) in leukemia cells (n = 5 - 6) was assessed by flow cytometry and the MFI was normalized to the control (DMSO) condition; • (ii) incubating isolated leukemia cells from patients with CLL (n = 10), following treatment with EC-7072 (200 nM), for 8 hours. […]

## CO[C@@H]([C@@H]1Cc2cc3cc(O[C@H]4C[C@@H](O[C@H]5C[C@@H](O)[C@H](O)[C@@H](C)O5)[C@H](O)[C@@H](C)O4)c(C)c(O)c3c(O)c2C(=O)[C@H]1O[C@H]1C[C@@H](O[C@H]2C[C@@H](O[C@H]3C[C@](C)(O)[C@H](O)[C@@H](C)O3)[C@@H](O)[C@@H](C)O2)[C@H](O)[C@@H](C)O1)[C@@H](O)C(C)=O [EC-7072, mithramycin SK]
  CD79A CLL cell surface expression: unchanged
  CD79B and IgM CLL cell surface expression: significantly decreased

From patent publication EP3797781A1, “USE OF EC-7072 AND SYNERGIC COMPOSITIONS THEREOF IN TREATMENT OF CHRONIC LYMPHOCYTIC LEUKEMIA” (priority 2019, dated 2021)
